From the supplement of paper PMC11061612

Experiments:
[1] = compound: CC(=O)O[C@H]1C(=O)[C@@]2(C)[C@H]([C@H](OC(=O)c3ccccc3)[C@]3(O)C[C@H](OC(=O)[C@H](O)[C@@H](NC(=O)c4ccccc4)c4ccccc4)C(C)=C1C3(C)C)[C@]1(OC(C)=O)CO[C@@H]1C[C@@H]2O [Paclitaxel]; settings: max 3 µM
Procedure, shortened: (§1)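 Plates with 1536 wells received cancer cell lines in 7.5 μl of DMEM/F12 or RPMI containing 10% FBS. After 24 hours at 37°C and 5% CO2, cells were dosed for 72 hours with final DMSO typically 0.2%, and viability was read by CellTiter-Glo 2.0 luminescence scaled between blank-well and DMSO-well means. The single-agent IC50 was taken from a logistic fit of the dose responses made with a non-linear mixed effects model, that logistic curve having two parameters.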

[2] = compound: COc1cccc2c1C(=O)c1c(O)c3c(c(O)c1C2=O)C[C@@](O)(C(=O)CO)C[C@@H]3O[C@H]1C[C@H](N)[C@H](O)[C@H](C)O1 [Doxorubicin]; settings: max 1 µM
Procedure, shortened: as §1

[3] = compound: COc1nnc2ccc(N3CCC(c4ccc(OCCN5CCN(C)C(=O)[C@H]5C)cc4)CC3)nn12 [AZD5153]; settings: max 1 µM
Procedure, shortened: as §1

[4] = compound: C[C@@H](Nc1cc(F)cc(F)c1)c1cc(C(=O)N(C)C)cc2c(=O)cc(N3CCOCC3)oc12 [AZD8186]; settings: max 10 µM
Procedure, shortened: as §1

[5] = compound: N#Cc1cnc(Nc2cc(NC[C@H]3CNCCO3)c(C(F)(F)F)cn2)cn1 [SRA737]; settings: max 10 µM
Procedure, shortened: as §1

[6] = compound: COc1cccc(OCCCN)c1-c1cc(Nc2cnc(C#N)cn2)n[nH]1 [Prexasertib]; settings: max 1 µM
Procedure, shortened: as §1

[7] = compound: CC1(C)CCC(CN2CCN(c3ccc(C(=O)NS(=O)(=O)c4ccc(NCC5CCOCC5)c([N+](=O)[O-])c4)c(Oc4cnc5[nH]ccc5c4)c3)CC2)=C(c2ccc(Cl)cc2)C1 [Venetoclax]; settings: max 1 µM
Procedure, shortened: as §1

[8] = compound: Nc1ccn([C@@H]2O[C@H](CO)[C@@H](O)C2(F)F)c(=O)n1 [Gemcitabine]; settings: max 0.3 µM
Procedure, shortened: as §1

[9] = compound: CC1=C(C(=CC=C1)Cl)NC(=O)C2=CN=C(S2)NC3=CC(=NC(=N3)C)N4CCN(CC4)CCO [Dasatinib]; settings: max 2 µM
Procedure, shortened: as §1

[10] = compound: C[C@@H](c1ccc2nccn2c1)n1nnc2ncc(-c3cnn(C)c3)nc21 [Savolitinib]; settings: max 1 µM
Procedure, shortened: as §1

[11] = compound: C[C@@H](Oc1cc(-c2cnn(C3CCNCC3)c2)cnc1N)c1c(Cl)ccc(F)c1Cl [Crizotinib]; settings: max 10 µM
Procedure, shortened: as §1

[12] = compound: Cc1nc(-c2cn3c(n2)-c2ccc(-c4cnn(C(C)(C)C(N)=O)c4)cc2OCC3)n(C(C)C)n1 [Taselisib]; settings: max 10 µM
Procedure, shortened: as §1

[13] = compound: NC1(c2ccc(-c3nc4ccn5c(=O)[nH]nc5c4cc3-c3ccccc3)cc2)CCC1 [MK-2206]; settings: max 10 µM
Procedure, shortened: as §1

[14] = compound: CN(CC[C@H](CSC1=CC=CC=C1)NC2=C(C=C(C=C2)S(=O)(=O)NC(=O)C3=CC=C(C=C3)N4CCC(CC4)[C@H](C5=CC=CC=C5C6=CC=C(C=C6)Cl)O)S(=O)(=O)C(F)(F)F)CCO [AZD4320]; settings: max 1 µM
Procedure, shortened: as §1

[15] = compound: CC(=O)Nc1cccc(-n2c(=O)n(C3CC3)c(=O)c3c(Nc4ccc(I)cc4F)n(C)c(=O)c(C)c32)c1 [Trametinib]; settings: max 1 µM
Procedure, shortened: as §1

[16] = compound: COc1cc(Nc2ncc3c(n2)-c2ccc(Cl)cc2C(c2c(F)cccc2OC)=NC3)ccc1C(=O)O [Alisertib]; settings: max 10 µM
Procedure, shortened: as §1

[17] = compound: O=C(c1cc(Cc2n[nH]c(=O)c3ccccc23)ccc1F)N1CCN(C(=O)C2CC2)CC1 [Olaparib]; settings: max 10 µM
Procedure, shortened: as §1

[18] = compound: CN(C)CCCOc1ccc(-c2ccc3ncc4c(c3c2)n(C2CCOCC2)c(=O)n4C)cn1 [AZD0156]; settings: max 3 µM
Procedure, shortened: as §1

[19] = compound: Cn1cnc2c(F)c(Nc3ccc(Br)cc3Cl)c(C(=O)NOCCO)cc21 [Selumetinib]; settings: max 10 µM
Procedure, shortened: as §1

[20] = compound: CC(=O)c1c(C)c2cnc(Nc3ccc(N4CCNCC4)cn3)nc2n(C2CCCC2)c1=O [Palbociclib]; settings: max 10 µM
Procedure, shortened: as §1

[21] = compound: C1CN(CCC1(C(=O)N[C@@H](CCO)C2=CC=C(C=C2)Cl)N)C3=NC=NC4=C3C=CN4 [AZD5363]; settings: max 10 µM
Procedure, shortened: as §1

[22] = compound: Cc1c2c(nn1C)CSCc1cc(n(C)n1)CSc1cc(c3ccccc3c1)OCCCc1c(C(=O)O)n(C)c3c-2c(Cl)ccc13 [AZD5991]; settings: max 1 µM
Procedure, shortened: as §1

[23] = compound: COc1cc2ncnc(Nc3ccc(F)c(Cl)c3)c2cc1OCCCN1CCOCC1 [Gefitinib]; settings: max 10 µM
Procedure, shortened: as §1

[24] = compound: COc1cc([C@@H]2c3cc4c(cc3[C@@H](O[C@@H]3O[C@@H]5CO[C@@H](C)O[C@H]5[C@H](O)[C@H]3O)[C@H]3COC(=O)[C@H]23)OCO4)cc(OC)c1O [Etoposide]; settings: max 10 µM
Procedure, shortened: as §1

[25] = compound: Cc1cc2ncnn2cc1Nc1ncc2c(n1)n(C1CCOCC1)c(=O)n2C [AZD7648]; settings: max 10 µM
Procedure, shortened: as §1

[26] = compound: O=c1[nH]cc(F)c(=O)[nH]1 [5-Fluorouracil]; settings: max 20 µM
Procedure, shortened: as §1

[27] = compound: CC1=CN2[C@@H](C1)C=NC3=CC(=C(C=C3C2=O)OC)OCCCCCOC4=C(C=C5C(=C4)N=C[C@@H]6CC(=CN6C5=O)C)OC [SG3199]; settings: max 0.001 µM
Procedure, shortened: as §1

[28] = compound: CS(=O)(=O)CCNCc1ccc(-c2ccc3ncnc(Nc4ccc(OCc5cccc(F)c5)c(Cl)c4)c3c2)o1 [Lapatinib]; settings: max 10 µM
Procedure, shortened: as §1

[29] = compound: CCN(CCO)CCCOc1ccc2c(Nc3cc(CC(=O)Nc4cccc(F)c4)[nH]n3)ncnc2c1 [AZD2811]; settings: max 1 µM
Procedure, shortened: as §1

[30] = compound: O=C(Nc1ccc2[nH]nc(-c3ccncc3)c2c1)[C@@H]1CCN(CC(=O)N2CCN(c3ccc(-c4ncccn4)cc3)CC2)C1; settings: max 5 µM
Procedure, shortened: as §1

[31] = compound: C[C@@H]1COCCN1C2=NC(=NC(=C2)C3(CC3)[S@](=N)(=O)C)C4=C5C=CNC5=NC=C4 [AZD6738]; settings: max 10 µM
Procedure, shortened: as §1

[32] = compound: C1CC(C1)(C(=O)[O-])C(=O)[O-].N.N.[Pt+2] [Carboplatin]; settings: max 10 µM
Procedure, shortened: as §1

[33] = compound: C=CCn1c(=O)c2cnc(Nc3ccc(N4CCN(C)CC4)cc3)nc2n1-c1cccc(C(C)(C)O)n1 [AZD1775]; settings: max 3 µM
Procedure, shortened: as §1

[34] = compound: CC(C)n1c(=O)n(C)c2cnc3cc(F)c(-c4ccc(OCCCN5CCCCC5)nc4)cc3c21 [AZD1390]; settings: max 0.3 µM
Procedure, shortened: as §1

[35] = compound: CCc1c2c(nc3ccc(O)cc13)-c1cc3c(c(=O)n1C2)COC(=O)[C@]3(O)CC [SN-38]; settings: max 0.3 µM
Procedure, shortened: as §1

| Cell Line | IC50, cell viability 72 h [1] [nM] | IC50, cell viability 72 h [2] [nM] | IC50, cell viability 72 h [3] [nM] | IC50, cell viability 72 h [4] [nM] | IC50, cell viability 72 h [5] [nM] | IC50, cell viability 72 h [6] [nM] | IC50, cell viability 72 h [7] [nM] | IC50, cell viability 72 h [8] [nM] | IC50, cell viability 72 h [9] [nM] | IC50, cell viability 72 h [10] [nM] | IC50, cell viability 72 h [11] [nM] | IC50, cell viability 72 h [12] [nM] | IC50, cell viability 72 h [13] [nM] | IC50, cell viability 72 h [14] [nM] | IC50, cell viability 72 h [15] [nM] | IC50, cell viability 72 h [16] [nM] | IC50, cell viability 72 h [17] [nM] | IC50, cell viability 72 h [18] [nM] | IC50, cell viability 72 h [19] [nM] | IC50, cell viability 72 h [20] [nM] | IC50, cell viability 72 h [21] [nM] | IC50, cell viability 72 h [22] [nM] | IC50, cell viability 72 h [23] [nM] | IC50, cell viability 72 h [24] [nM] | IC50, cell viability 72 h [25] [nM] | IC50, cell viability 72 h [26] [nM] | IC50, cell viability 72 h [27] [nM] | IC50, cell viability 72 h [28] [nM] | IC50, cell viability 72 h [29] [nM] | IC50, cell viability 72 h [30] [nM] | IC50, cell viability 72 h [31] [nM] | IC50, cell viability 72 h [32] [nM] | IC50, cell viability 72 h [33] [nM] | IC50, cell viability 72 h [34] [nM] | IC50, cell viability 72 h [35] [nM] |
| --- | --- | --- | --- | --- | --- | --- | --- | --- | --- | --- | --- | --- | --- | --- | --- | --- | --- | --- | --- | --- | --- | --- | --- | --- | --- | --- | --- | --- | --- | --- | --- | --- | --- | --- | --- |
| MIA-PaCa-2 (Pancreatic Carcinoma) | 39.5 | 183 | 165 | > 10000 | > 10000 | 67.4 | > 1000 | 101 | > 2000 | > 1000 | > 10000 | > 10000 | > 10000 | > 1000 | 150 | 3490 | > 10000 | > 3000 | 3370 | > 10000 | > 10000 | > 1000 | > 10000 | 2890 | > 10000 | > 20000 | > 1 | > 10000 | > 1000 | 2110 | 8720 | > 10000 | > 3000 | > 300 | 14.6 |
| NB69 (Neuroblastoma) | 15 | 77.2 | 37.7 | 7650 | > 10000 | 89.9 | > 1000 | 16 | 141 | > 1000 | 2540 | 487 | > 10000 | 226 | 3.07 | 238 | > 10000 | > 3000 | 232 | 491 | > 10000 | 201 | > 10000 | 166 | > 10000 | 8720 | > 1 | 9900 | 470 | 27.2 | 3130 | > 10000 | 444 | > 300 | 2.16 |
| LU-65 (Non-Small Cell Lung Carcinoma) | 32.1 | 341 | > 1000 | > 10000 | 4300 | 89.6 | > 1000 | > 300 | > 2000 | > 1000 | 7510 | 3010 | > 10000 | > 1000 | 52.9 | > 10000 | > 10000 | > 3000 | 1650 | > 10000 | > 10000 | > 1000 | > 10000 | > 10000 | > 10000 | > 20000 | > 1 | > 10000 | > 1000 | 350 | 3970 | > 10000 | 770 | > 300 | 49.1 |
| YH-13 (Glioblastoma) | 3.82 | > 1000 | 534 | 2850 | > 10000 | 76.3 | > 1000 | 114 | 837 | > 1000 | > 10000 | 2990 | > 10000 | > 1000 | > 1000 | > 10000 | > 10000 | > 3000 | > 10000 | > 10000 | > 10000 | > 1000 | > 10000 | > 10000 | > 10000 | > 20000 | > 1 | > 10000 | > 1000 | > 5000 | > 10000 | > 10000 | > 3000 | > 300 | 159 |
| PANC-04-03 (Pancreatic Carcinoma) | 2340 | > 1000 | > 1000 | > 10000 | > 10000 | 530 | > 1000 | > 300 | > 2000 | > 1000 | > 10000 | 7660 | > 10000 | > 1000 | 286 | > 10000 | > 10000 | > 3000 | > 10000 | > 10000 | > 10000 | > 1000 | > 10000 | > 10000 | > 10000 | > 20000 | > 1 | > 10000 | > 1000 | 4530 | > 10000 | > 10000 | > 3000 | > 300 | > 300 |
